In PubChem BioAssay AID489035 (Sanford-Burnham Center for Chemical Genomics, 2010):
Active and inactive are the calls of the source. How the calls were made is not given here.

system: Jurkat NF-kB reporter, TCR-induced, luciferase luminescence; experiment: inhibitors of TCR-driven NF-kB activation, dose response, Jurkat cells, luminescence (AID 489035)

| Structure (SMILES) | IC50 |
| --- | --- |
| CCN1C/C(=C/c2ccc(OC)c(O)c2)C(=O)/C(=C/c2ccc(OC)c(O)c2)C1 | 22.5 µM (inactive) |
| COC(=O)c1[nH]c2c(c1C)C(=O)CC(c1cccc(OC)c1)C2 (configuration not stated) | > 80 µM (inactive) |
| C(=N\Nc1nc2ccccc2s1)/c1ccccn1 | 0.84 µM |
| CCOc1ccccc1C1CC(=O)Nc2cc(C)c(C)cc21 (configuration not stated) | > 80 µM (inactive) |
| Cc1ccc(C(=O)c2cc([N+](=O)[O-])ccc2N2CCOCC2)cc1C | 19.6 µM |
| COc1ccc(CCN2C(=O)C3C4C=CC(C3C2=O)C2C(=O)N(CCc3ccc(OC)c(OC)c3)C(=O)C42)cc1OC (configuration not stated) | > 80 µM (inactive) |
| CCOC(=O)c1ccc(Nc2nc(N)c3cc(OC)c(OC)cc3n2)cc1 | > 80 µM (inactive) |
| COc1ccc(-c2ccc3oc(-c4ccc(OC)cc4)c(C#CCO)c3c2)cc1 | > 80 µM (inactive) |
| COc1ccc(C(=O)Nc2ccc3[nH]c(-c4cccc(OC)c4)cc(=O)c3c2)cc1 | < 0.16 µM |
| Cc1ccc(S(=O)(=O)Nc2cccc(-c3ccc4nncn4n3)c2)cc1 | > 80 µM (inactive) |
| CN(Cc1ccccc1)C1=CC(=[N+]2CCCC2)CC(C)(C)C1 | 55.1 µM (inactive) |
| O=S(=O)(C/C(=C/CO)S(=O)(=O)c1ccccc1)c1ccccc1 | 0.77 µM |
| COc1ccc([C@H]2CC(=O)C=C(c3ccc(OC)cc3OC)C2)cc1 | > 80 µM (inactive) |
| CCCN(CCC)C1=CC(=[N+]2CCCC2)CC(C)(C)C1 | > 80 µM (inactive) |
| CC(=O)O[C@H]1C(=O)[C@@]2(C)[C@H]([C@H](OC(=O)c3ccccc3)[C@]3(O)C[C@H](OC(=O)[C@H](O)[C@@H](NC(=O)c4ccccc4)c4ccccc4)C(C)=C1C3(C)C)[C@]1(OC(C)=O)CO[C@@H]1C[C@@H]2O | 11 µM |
| CC1=NNC(=O)/C1=C\c1cn(-c2ccccc2)nc1-c1ccc(Cl)cc1 | 1.13 µM |
| Cc1cc(C)c(S(=O)(=O)Nc2ccc3c4c(cccc24)CC3)c(C)c1 | 61 µM (inactive) |
| CCOc1ccc(NC(=O)c2cc3c(C)nc4ccccc4c3o2)cc1 | > 80 µM (inactive) |
| Cc1cc(=O)oc2cc(OCC3CC(c4ccccc4Cl)=NO3)ccc12 (configuration not stated) | > 80 µM (inactive) |
| CCCCc1ccc(NC(=O)c2ccc(N(C)S(C)(=O)=O)cc2)cc1 | < 0.16 µM |
| c1ccc2c(c1)CCN(c1ncnc3c1[nH]c1ccccc13)C2 | 24.2 µM (inactive) |
| COc1cc(C2c3cc4c(cc3C(OC3OC5COC(c6cccs6)OC5C(O)C3O)C3COC(=O)C23)OCO4)cc(OC)c1O (configuration not stated) | 0.68 µM |
| Cc1cccc(NS(=O)(=O)c2ccc(-c3cnc(C4CC4)o3)cc2)c1C | 27.6 µM (inactive) |
| COc1cc(C2=NOC(C(=O)NCc3ccc(F)cc3)C2)cc(OC)c1OC (configuration not stated) | 6.16 µM |
| Cc1ccc2[nH]c3c(c2c1)CCCC3NC(=O)CCl (configuration not stated) | 0.32 µM |

| Structure (SMILES) | IC50 |
| --- | --- |
| Cc1ccc2nc(SCC(=O)Nc3cc(C(F)(F)F)ccc3N3CCOCC3)[nH]c2c1 | > 80 µM (inactive) |
| Cc1ccc(C)c(NS(=O)(=O)c2ccc(-c3cnc(C4CC4)o3)cc2)c1 | 13.8 µM |
| CCOc1ccccc1C1CC(=O)Nc2cc3c(cc21)OCO3 (configuration not stated) | 67.1 µM (inactive) |
| COc1ccc(CCNc2nnc(Sc3nnnn3-c3ccccc3)s2)cc1OC | 10.6 µM |
| O=C(c1ccccc1)c1nn(-c2ccc(Cl)cc2)c(=O)cc1C(F)(F)F | 1.25 µM |
| O=C(NCCc1ccccc1)c1ccc2c(c1)OCCO2 | 1.64 µM |
| O=C(Nc1ccc(N2CCOCC2)cc1)c1ccc(Cl)c(S(=O)(=O)N2CCCCC2)c1 | > 80 µM (inactive) |
| O=C(Nc1ccc([N+](=O)[O-])cc1)Nc1ccon1 | > 80 µM (inactive) |
| COc1cccc(-c2cc(=O)c3cc(NC(=O)c4ccc(N(C)C)cc4)ccc3[nH]2)c1 | 6.22 µM |
| CCOC(=O)N=Nc1c2ccccc2c2nc3no[nH]c3nc12 | 0.73 µM |
| CCCC(=O)NC(c1ccc(OC)cc1)c1ccc2cccnc2c1O (configuration not stated) | 2.83 µM |
| COc1ccc(C2=Nn3c(nnc3-c3ccccc3OC)SC2)cc1OC1CCCC1 | 15.3 µM |
| CCCC(=O)Nc1nc2ccc(NC(=O)c3c(F)c(F)c(OC)c(F)c3F)cc2s1 | 11.5 µM |
| CCOc1ccccc1NC(=O)Cn1nnc(C(=O)NCc2ccco2)c1N | > 80 µM (inactive) |
| Cc1ccc(Nc2nc(-c3c(C)nc4ncccn34)cs2)cc1 | 18.7 µM |
| Cc1ccc(/C=C/c2ccc(N(C)C)cc2)[n+](C)c1 | > 80 µM (inactive) |
| Oc1ccccc1N=Nc1nc(-c2ccccc2)c(-c2ccccc2)[nH]1 | 0.82 µM |
| COc1ccc(Cn2c(SCc3ccc(C)cc3)nc3cc(OC)c(OC)cc3c2=N)cc1Cl | 3.51 µM |
| CCC(C)C(=O)N[C@@H](c1ccccc1)[C@@H](O)C(=O)O[C@H]1C[C@@]2(O)[C@@H](OC(=O)c3ccccc3)C3[C@](C)(C(=O)[C@H](OC(C)=O)C(=C1C)C2(C)C)[C@@H](O)C[C@H]1OC[C@@]31OC(C)=O (some centres not stated) | > 80 µM (inactive) |
| CCOc1ccc(S(=O)(=O)N2c3ccccc3CC2C)cc1 (configuration not stated) | 8.42 µM |
| Cc1ccc(Oc2ccc(OCC(=O)Nc3ccncc3)cc2)cc1 | 19.3 µM |
| COc1ccc(NC(=O)Cn2nnc(-c3ccccc3NS(=O)(=O)c3ccc(OC)cc3)n2)cc1 | > 80 µM (inactive) |
| O=C(Nc1ccc(S(=O)(=O)N2CCCC2)cc1)c1ccc(CN2CCc3ccccc3C2)cc1 | > 80 µM (inactive) |
| Cc1ccc(C(=O)Nc2ncc(Cc3ccc(SC(F)F)cc3)s2)cc1 | > 80 µM (inactive) |
| Cc1noc(C)c1COc1ccc(CC(=O)NCc2ccccc2)cc1 | > 80 µM (inactive) |

| Structure (SMILES) | IC50 |
| --- | --- |
| CCn1ncc(C2=NOC(C(=O)NCc3ccc(Cl)cc3)C2)c1C (configuration not stated) | > 80 µM (inactive) |
| C[C@@H]1O[C@@H](O[C@H]2C[C@@H](O)[C@]3(CO)[C@@H]4C(CC[C@]3(O)C2)[C@@]2(O)CC[C@H](C3COC(=O)C3)[C@@]2(C)C[C@H]4O)[C@H](O)[C@H](O)[C@H]1O (some centres not stated) | 23.3 µM (inactive) |
| Cc1cc(C)c(CN2CCN(C(=O)Cn3cnc4c(OCc5ccccc5)ncnc43)CC2)c(C)c1 | > 80 µM (inactive) |
| O=C(Nc1ccc(Oc2cccnc2)nc1)c1ccc(C(F)(F)F)cc1 | > 80 µM (inactive) |
| Cc1cc(-c2ccc(C(C)C)c(S(=O)(=O)N3CCN(c4ccccc4)CC3)c2)on1 | > 80 µM (inactive) |
| O=S(=O)(c1cc(F)ccc1F)N1CCN(c2ncnc3ccccc23)CC1 | > 80 µM (inactive) |
| COc1ccc(S(=O)(=O)/N=C2\C=C(Nc3ccc(O)cc3)C(=O)c3ccccc32)cc1 | 0.53 µM |
| CCn1ncc(C2=NOC(C(=O)NCc3ccccc3)C2)c1C (configuration not stated) | < 0.16 µM |
| Cc1nc(Nc2nc3c(c(=O)[nH]2)CCC3)nc2ccccc12 | 3.66 µM |
| COc1ccc(C2=NOC(C(=O)NCc3cccs3)C2)cc1OC (configuration not stated) | > 80 µM (inactive) |
| O=C(Nc1nc2ccc(S(=O)(=O)N3CCCC3)cc2s1)C1CCCCC1 | > 80 µM (inactive) |
| COC(=O)C1CN(C#N)N(c2ccc(Cl)cc2)C12c1ccccc1-c1ccccc12 (configuration not stated) | 0.9 µM |
| Cc1nc2ccccc2c2c1CC(C(C)(Cl)Br)O2 (configuration not stated) | > 80 µM (inactive) |
| O=c1cc(-c2ccccc2)[nH]c2cc(Cl)ccc12 | 18.8 µM |
| CCn1cc(C(=O)NC2CCCc3c2cnn3-c2cccc(C)c2C)cn1 (configuration not stated) | > 80 µM (inactive) |
| CCCCCn1c2c(c(=N)c3ccccc31)CCC2 | > 80 µM (inactive) |
| CCCCCCCCCCCCCCCC[n+]1ccc(/C=N/O)cc1 | 1.57 µM |
| C=CCSc1nc2ccccc2n1C(=O)/C=C/c1cc(OC)c(OC)c(OC)c1 | 1.79 µM |
| O=C(Nc1nc(-c2ccccn2)cs1)c1ccc(Cl)s1 | 2.64 µM |
| COC(=O)c1cnc(Oc2ccc(NC(=O)NC(=O)c3c(F)cccc3Cl)cc2)cc1C(F)(F)F | > 80 µM (inactive) |
| COc1ccc2c(C)nc(Nc3nc(-c4ccccc4)cc(=O)[nH]3)nc2c1 | > 80 µM (inactive) |
| COc1cc(NS(=O)(=O)c2ccc(C)cc2)c2ncccc2c1 | 2.12 µM |
| O=C(Nc1ccc(S(=O)(=O)N2CCOCC2)cc1)c1ccc(CN2CCc3ccccc3C2)cc1 | 12.7 µM |
| COC(=O)c1[nH]c2ccc(F)cc2c1NS(=O)(=O)c1ccc(OC)cc1 | > 80 µM (inactive) |
| O=C(N/N=C(\c1ccccc1)c1cccnc1)c1cccc(F)c1 | 5.3 µM |

| Structure (SMILES) | IC50 |
| --- | --- |
| O=S(=O)(c1ccc2c(c1)OCCO2)N1CCN(c2ncnc3sccc23)CC1 | > 80 µM (inactive) |
| COc1ccc(OC)c(COC(=O)c2cc([N+](=O)[O-])ccc2N2CCOCC2)c1 | 71.8 µM (inactive) |
| NC(=O)CC(NC(=O)c1ccc(Br)cc1)c1ccc(N2CCCCCC2)c([N+](=O)[O-])c1 (configuration not stated) | 2.54 µM |
| CC1=Nc2ccccc2/C1=C\c1sc(Nc2ccc(C)cc2)nc1O | > 80 µM (inactive) |
| CN(C)c1ccc(-[n+]2c(-c3ccccc3)cc(-c3ccccc3)cc2-c2ccccc2)cc1 | 7.96 µM |
| Cc1cc(-c2ccc(C)c(S(=O)(=O)N3CCN(c4ccc([N+](=O)[O-])cc4)CC3)c2)on1 | > 80 µM (inactive) |
| CCC(=O)NC(c1ccc(C)cc1)c1ccc2cccnc2c1O (configuration not stated) | 11.6 µM |
| O=C(Nc1ccc(S(=O)(=O)N2CCN(Cc3ccccc3)CC2)cc1)c1cnccn1 | > 80 µM (inactive) |
| Cc1ccc(C(=O)Nc2cnc3ccccc3c2)cc1 | 0.37 µM |
| Cc1c(C)c2ccc(OCC(=O)Nc3ccccn3)c(C)c2oc1=O | 0.39 µM |
| COc1ccc(-n2cc(-c3ccc(C)cc3)[n+]3c2SCC3)cc1 | > 80 µM (inactive) |
| COc1cc(/C=C/[N+](=O)[O-])ccc1OCc1cccc(C(=O)O)c1 | 0.55 µM |
| COc1cc(C(=O)Nc2ccc3c(c2)CCN3C(C)=O)cc(OC)c1OC | > 80 µM (inactive) |
| COc1ccc(Br)cc1/C(C)=N/NC1=NCCN1 | > 80 µM (inactive) |
| Cc1ccc(NC(=O)CSc2nc(-c3ccco3)cc(C(F)(F)F)n2)cc1C | > 80 µM (inactive) |
| O=C(Nc1ccc(S(=O)(=O)Nc2ccccc2)cc1)c1ccc(CN2CCOCC2)cc1 | 29.5 µM (inactive) |
| Cn1nc(-c2ccccn2)nc2c(=O)n(C)c(=O)nc1-2 | 12.4 µM |
| c1ccc(-c2noc(-c3ccc4ccccc4c3)n2)nc1 | 0.46 µM |
| COc1cccc(N2CCN(C(=O)c3ccc(CS(=O)c4ccccc4Cl)o3)CC2)c1 (configuration not stated) | > 80 µM (inactive) |
| CCOC(=O)c1ccccc1NS(=O)(=O)c1ccc(OCC)cc1 | 78.3 µM (inactive) |
| CCCc1cc(C(=O)Nc2cc(C)ccc2O)no1 | > 80 µM (inactive) |
| CC[C@@]1(O)C(=O)OCc2c1cc1n(c2=O)Cc2cc3c(CN(C)C)c(O)ccc3nc2-1 | 0.2 µM |
